The target in assay [1] is T1, Purified recombinant NBD1 (Homo sapiens, UniProt P13569).
T1 construct: Purified recombinant NBD1 was produced using previously described methods; made in house
Nature of the assay: Aggregation analysis using differential static light scattering (DSLS): thermal stability of NBD1. In kind it is binding. The settings on record: NBD1 0.2 mg/ml; Tagg of compound well minus average Tagg of DMSO control wells. The procedure, abridged:
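ΔTagg is compound-well aggregation temperature minus the DMSO-control mean, each Tagg being the inflection point of light scattering measured by DSLS during a 1 °C/min ramp up to 70 °C. The protein was purified NBD1 (0.2 mg/ml) in pH 7.6 buffer containing 2 mM ATP, 5 mM MgCl2 and 1% glycerol.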

The test system of assay [2] is Primary human bronchial epithelial cells from a ΔF508 homozygous CF donor (CF-HBE cells). Description: TECC24 recording of CFTR-mediated transepithelial chloride transport, AUC fold over benchmark VX-809 @10 μM. Format: cell-based. The settings on record: 48 hours incubation, AUC of forskolin-stimulated IEQ. As to the method:
The effects of a test agent on CFTR-mediated transepithelial chloride transport is measured using TECC24 recording analysis. Test agents are solubilized in DMSO. Solubilized test agents are mixed with incubation medium containing DMEM/F12, Ultroser G (0.5%; Crescent Chemical, catalog #67042), Hyclone Fetal Clone II (2%; GE Healthcare, catalog #SH30066.02), bovine brain extract (0.25%; Lonza, catalog #CC-4098), insulin ([…]), IL-13 (10 ng/mL), hydrocortisone (20 nM), transferrin ([…]), triiodothyronine (500 nM), ethanolamine (250 nM), epinephrine (1.5 μM), phosphoethanolamine (250 nM), and retinoic acid (10 nM). Primary human bronchial epithelial cells from a ΔF508 homozygous CF donor (CF-HBE cells; from University of North Carolina Cystic Fibrosis Tissue Procurement Center), grown on Transwell HTS 24-well cell culture inserts (Costar, catalog #3378), are exposed to test agents or controls dissolved in incubation medium. The CF-HBE cells are cultured at 36.5° C. for 48 hours before TECC24 recordings are performed in the presence or absence of test agent, a positive control or vehicle (DMSO).
Following incubation, the transwell cell culture inserts containing the test agent or control-treated CF-HBE cells are loaded onto a TECC24 apparatus (TECC v7 or MTECC v2; EP Design) to record the transepithelial voltage (VT) and resistance (TEER) using 4 AgCl electrodes per well configured in current-clamp mode. The apical and basolateral bath solutions both contain (in mM) 140 NaCl, 5 KCl, 2 CaCl2), 1 MgCl2, 10 Hepes, and 10 glucose (adjusted to pH 7.4 with NaOH). To inhibit basal Na+ absorption, the ENaC inhibitor benzamil (10 μM) is added to the bath. Then, the adenylate cyclase activator, forskolin (10 μM), is added to the bath to activate CFTR. The forskolin-stimulated Cl− transport is halted by addition of CFTR inhibitor-172 (20 μM) to the bath at the end of the experiment to confirm specificity. VT and TEER recordings are digitally acquired at routine intervals using TECC or MTECC software (EP Design). VT and TEER are transformed into equivalent transepithelial Cl− current (IEQ), and the Area Under the Curve (AUC) of the IEQ time course between forskolin and CFTR inhibitor-172 addition is generated using Excel (Microsoft). Efficacy is expressed as the ratio of the test agent AUC divided by vehicle AUC. EC50s based on AUC are generated using the non-linear regression log(agonist) vs. response function in Prism software (Graphpad) with HillSlope fixed=1.
If a test agent increases the AUC of the forskolin-stimulated IEQ relative to VX-809 in CF-HBE cells, and this increase is inhibited by CFTR inhibitor-172, then the test agent is considered a CFTR corrector. TECC assay efficacy is expressed as the ratio of the test agent AUC divided by VX-809 AUC. As set forth in Table 2 below, a TECC value less than 3 is marked “A”; a value between 3 and 6 is marked “B”; a value between 6 and 20 is marked “C”.

The structures appear in SMILES notation.

T1 sequence (P13569 423-646 limits assumed): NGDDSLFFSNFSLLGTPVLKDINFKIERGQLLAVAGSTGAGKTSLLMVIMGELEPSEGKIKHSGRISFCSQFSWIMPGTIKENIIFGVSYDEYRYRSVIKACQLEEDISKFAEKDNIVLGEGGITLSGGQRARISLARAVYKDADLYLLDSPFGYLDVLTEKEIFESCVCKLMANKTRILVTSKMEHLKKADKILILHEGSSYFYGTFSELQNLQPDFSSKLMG

In the case of `CON(C)C(=O)CCc1cccc(C2(C)CCCC(C)(C)CN(C)C(=O)CCc3c(c(F)cc4[nH]ccc34)Oc3ccc(F)c(c3)-c3ncc2[nH]3)c1` (single isomer, unassigned) [Compound 60B, 3-[3-(23,29-difluoro-6,10,10,12-tetramethyl-13-oxo-25-oxa-3,12,20,31-tetrazapentacyclo-[24.3.1.12,5.016,24.017,21]hentriaconta-1(30),2,4,16,18,21,23,26,28-nonaen-6-yl)phenyl]-N-methoxy-N-methyl-propanamide], the “DSLS (ΔTagg)” value in assay [1] was “B (a value above 5 °C and less than or equal to 10 °C is marked “B”)”. Moreover, the “TECC (test agent AUC divided by VX-809 AUC)” value in assay [2] is “B (a value between 3 and 6 is marked “B”)”.
In the case of `CCOC(=O)Cc1cccc(C2(C)CCCC(C)(C)CN(C)C(=O)CCc3c(c(F)cc4[nH]ccc34)Oc3ccc(F)c(c3)-c3ncc2[nH]3)c1` (single isomer, unassigned) [Compound 64A, ethyl 2-[3-(23,29-difluoro-6,10,10,12-tetramethyl-13-oxo-25-oxa-3,12,20,31-tetrazapentacyclo-[24.3.1.12,5.016,24.017,21]hentriaconta-1(30),2,4,16,18,21,23,26,28-nonaen-6-yl)phenyl]acetate], in assay [1], the “DSLS (ΔTagg)” value is “A (an ΔTagg value less than or equal to 5 °C is marked “A”)”. In addition, in assay [2], the “TECC (test agent AUC divided by VX-809 AUC)” value is reported as “A (a TECC value less than 3 is marked “A”)”.
On to `CCOC(=O)Cc1cccc(C2(C)CCCC(C)(C)CN(C)C(=O)CCc3c(c(F)cc4[nH]ccc34)Oc3ccc(F)c(c3)-c3ncc2[nH]3)c1` (single isomer, unassigned) [Compound 64B, ethyl 2-[3-(23,29-difluoro-6,10,10,12-tetramethyl-13-oxo-25-oxa-3,12,20,31-tetrazapentacyclo-[24.3.1.12,5.016,24.017,21]hentriaconta-1(30),2,4,16,18,21,23,26,28-nonaen-6-yl)phenyl]acetate], for which, in assay [1], the “DSLS (ΔTagg)” value was “A (an ΔTagg value less than or equal to 5 °C is marked “A”)”. The “TECC (test agent AUC divided by VX-809 AUC)” value in assay [2] is “B (a value between 3 and 6 is marked “B”)”.
Consider `CN1CC(C)(C)CCCC(C)(c2cccc(CC(=O)O)c2)c2cnc([nH]2)-c2cc(ccc2F)Oc2c(F)cc3[nH]ccc3c2CCC1=O` (single isomer, unassigned) [Compound 65A, 2-[3-(23,29-difluoro-6,10,10,12-tetramethyl-13-oxo-25-oxa-3,12,20,31-tetrazapentacyclo-[24.3.1.12,5.016,24.017,21]hentriaconta-1(30),2,4,16,18,21,23,26,28-nonaen-6-yl)phenyl]acetic acid], for which the “DSLS (ΔTagg)” value in assay [1] was “A (an ΔTagg value less than or equal to 5 °C is marked “A”)”. Further, the “TECC (test agent AUC divided by VX-809 AUC)” value in assay [2] is “A (a TECC value less than 3 is marked “A”)”.
For `CN1CC(C)(C)CCCC(C)(c2cccc(CC(=O)O)c2)c2cnc([nH]2)-c2cc(ccc2F)Oc2c(F)cc3[nH]ccc3c2CCC1=O` (single isomer, unassigned) [Compound 65B, 2-[3-(23,29-difluoro-6,10,10,12-tetramethyl-13-oxo-25-oxa-3,12,20,31-tetrazapentacyclo-[24.3.1.12,5.016,24.017,21]hentriaconta-1(30),2,4,16,18,21,23,26,28-nonaen-6-yl)phenyl]acetic acid], the “DSLS (ΔTagg)” value in assay [1] is “C (a value greater than 10 °C and less than or equal to 25 °C is marked “C”)”. The “TECC (test agent AUC divided by VX-809 AUC)” value in assay [2] is recorded as “A (a TECC value less than 3 is marked “A”)”.
Consider `[2H]C([2H])([2H])C1(c2cccc(CCC(=O)O)c2)CCCC(C)(C)CN(C)C(=O)CCc2c(c(F)cc3[nH]ccc23)Oc2ccc(F)c(c2)-c2ncc1[nH]2` (single isomer, unassigned) [Compound 66A], for which, in assay [1], the “DSLS (ΔTagg)” value is “A (an ΔTagg value less than or equal to 5 °C is marked “A”)”. Further, in assay [2], the “TECC (test agent AUC divided by VX-809 AUC)” value was “A (a TECC value less than 3 is marked “A”)”.
As for `[2H]C([2H])([2H])C1(c2cccc(CCC(=O)O)c2)CCCC(C)(C)CN(C)C(=O)CCc2c(c(F)cc3[nH]ccc23)Oc2ccc(F)c(c2)-c2ncc1[nH]2` (single isomer, unassigned) [Compound 66B], in assay [1], the “DSLS (ΔTagg)” value was “C (a value greater than 10 °C and less than or equal to 25 °C is marked “C”)”. In addition, the “TECC (test agent AUC divided by VX-809 AUC)” value in assay [2] was “A (a TECC value less than 3 is marked “A”)”.
Regarding `CC1(C)CNC(=O)CCc2c(c(F)cc3[nH]ccc23)Oc2ccc(F)c(c2)-c2ncc([nH]2)C(C)(c2cccc(CCC(=O)O)c2)CCOC1` (single isomer, unassigned) [Compound 67A, 3-[3-(24,30-difluoro-6,11,11-trimethyl-14-oxo-9,26-dioxa-3,13,21,32-tetrazapentacyclo[25.3.1.12,5.017,25.018,22]dotriaconta-1(31),2,4,17,19,22,24,27,29-nonaen-6-yl)phenyl]propanoic acid], the “DSLS (ΔTagg)” value in assay [1] was “C (a value greater than 10 °C and less than or equal to 25 °C is marked “C”)”. Besides, the “TECC (test agent AUC divided by VX-809 AUC)” value in assay [2] is “C (a value between 6 and 20 is marked “C”)”.
Turning to `CC1(C)CNC(=O)CCc2c(c(F)cc3[nH]ccc23)Oc2ccc(F)c(c2)-c2ncc([nH]2)C(C)(c2cccc(CCC(=O)O)c2)CCOC1` (single isomer, unassigned) [Compound 67B, 3-[3-(24,30-difluoro-6,11,11-trimethyl-14-oxo-9,26-dioxa-3,13,21,32-tetrazapentacyclo[25.3.1.12,5.017,25.018,22]dotriaconta-1(31),2,4,17,19,22,24,27,29-nonaen-6-yl)phenyl]propanoic acid], in assay [1], the “DSLS (ΔTagg)” value is “B (a value above 5 °C and less than or equal to 10 °C is marked “B”)”. Besides, the “TECC (test agent AUC divided by VX-809 AUC)” value in assay [2] is “A (a TECC value less than 3 is marked “A”)”.
On to `CC1(c2cccc(CCC(=O)O)c2)CCCC2(CC2)CNC(=O)CCc2c(c(F)c(F)c3[nH]ccc23)Oc2ccc(F)c(c2)-c2ncc1[nH]2` (single isomer, unassigned) [Compound 69A, 3-[3-(22,23,29-trifluoro-6-methyl-13-oxo-spiro[25-oxa-3,12,20,31-tetrazapentacyclo-[24.3.1.12,5.016,24.017,21]hentriaconta-1(30),2,4,16,18,21,23,26,28-nonaene-10,1′-cyclopropane]-6-yl)phenyl]propanoic acid], for which, in assay [1], the “DSLS (ΔTagg)” value is “A (an ΔTagg value less than or equal to 5 °C is marked “A”)”. In addition, the “TECC (test agent AUC divided by VX-809 AUC)” value in assay [2] is “B (a value between 3 and 6 is marked “B”)”.
Consider `CC1(c2cccc(CCC(=O)O)c2)CCCC2(CC2)CNC(=O)CCc2c(c(F)c(F)c3[nH]ccc23)Oc2ccc(F)c(c2)-c2ncc1[nH]2` (single isomer, unassigned) [Compound 69B, 3-[3-(22,23,29-trifluoro-6-methyl-13-oxo-spiro[25-oxa-3,12,20,31-tetrazapentacyclo-[24.3.1.12,5.016,24.017,21]hentriaconta-1(30),2,4,16,18,21,23,26,28-nonaene-10,1′-cyclopropane]-6-yl)phenyl]propanoic acid], for which the “DSLS (ΔTagg)” value in assay [1] is “A (an ΔTagg value less than or equal to 5 °C is marked “A”)”. The “TECC (test agent AUC divided by VX-809 AUC)” value in assay [2] is “B (a value between 3 and 6 is marked “B”)”.
For `CN1CC(C)(C)CCCC(C)(c2cccc(CCC(=O)O)c2)c2cnc([nH]2)-c2cc(ccc2F)Oc2c(F)cc3[nH]cnc3c2CCC1=O` (single isomer, unassigned) [Compound 72A, 3-[3-(23,29-difluoro-6,10,10,12-tetramethyl-13-oxo-25-oxa-3,12,18,20,31-pentazapentacyclo-[24.3.1.12,5.016,24.017,21]hentriaconta-1(30),2,4,16,18,21,23,26,28-nonaen-6-yl)phenyl]propanoic acid], the “DSLS (ΔTagg)” value in assay [1] is “A (an ΔTagg value less than or equal to 5 °C is marked “A”)”. For the same compound, the “TECC (test agent AUC divided by VX-809 AUC)” value in assay [2] is “A (a TECC value less than 3 is marked “A”)”.

For the origin of these results see US20250197420A1, “MACROCYCLIC COMPOUNDS, COMPOSITIONS, AND METHODS OF USING THEREOF” (Sionna Therapeutics Inc., priority 2022, published 2025).
